Measured values reported in patent US6455506B1, “Lyxofuranosyl benzimidazoles as antiviral agents” (SmithKline Beecham Corporation, priority 1997, dated 2002).
Several values for one entry are separate records, joined by “and”; a condition that tells them apart may be missing. Identical values can stand only once. Like-named read-outs stand apart in the source and are kept apart here.

Tests used:
[1] = Visual cytotoxicity in stationary HFF cells; type: cell-based; settings: human
Experimental: (§1) Two different assays were used for routine cytotoxicity testing. (i) Cytotoxicity produced in stationary HFF cells was determined by microscopic inspection of cells not affected by the virus used in plaque assays (see Turk, S. R.; Shipman, C., Jr.; Nassiri, M. R.; Genzingler, G.; Krawczyk, S. H.; Townsend, L. B.; Drach, J. C. Pyrrolo[2,3-]pyrimidine Nucleosides as Inhibitors of Human Cytomegalovirus, Antimicrob. Agents Chemother. 1987, 31, 544-550). (ii) The effect of compounds during two population doublings of KB cells was determined by crystal violet staining and spectrophotometric quantitation of dye eluted from stained cells as described earlier (see Prichard, M. N.; Prichard, L. E., Baguley, W. A.; Nassiri, M. R.; Shipman, C., Jr. Three-Dimensional Analysis of the Synergistic Cytotoxicity of Ganciclovir and Zidovudine. Antiviral Res. 1991, 35, 1060-1065). Briefly, 96-well cluster dishes were planted with KB cells at 3000-5000 cells per well. After overnight incubation at 37° C., test compound was added in quadruplicate at six to eight concentrations. Plates were incubated at 37° C. for 48 hours in a CO2 incubator, rinsed, fixed with 95% ethanol, and stained with 0.1% crystal violet. Acidified ethanol was added and plates read at 570 nm in a spectrophotometer designed to read 96-well ELISA assay plates.
(§2) Dose-response relationships were constructed by linearly regressing the percent inhibition of parameters derived in the preceding sections against log drug concentrations. Fifty-percent inhibitory concentrations (IC50's) or IC90's were calculated from the regression lines. Samples containing positive controls (acyclovir for HSV-1, ganciclovir for HCMV, and 2-acetylpyridine thiosemicarbazone for cytotoxicity) were used in all assays.

HSV-1 = HSV-1 ELISA in BSC-1 cells; type: cell-based, herpes simplex virus 1; settings: Human alphaherpesvirus 1, quadruplicate wells, read-out: HSV-1 ELISA 50% Inhibitory Concentration (IC50)
Experimental: An ELISA was employed (see Prichard, M. N.; Shipman, C., Jr. A Three Dimensional Model to Analyze Drug-Drug Interactions. Antiviral Res. 1990, 14, 181-206) to detect HSV-1. Ninety-six-well cluster dishes were planted with 10,000 BSC-1 cells per well in 200 μL per well of MEM(E) plus 10% calf serum. After overnight incubation at 37° C., selected drug concentrations in quadruplicate and HSV-1 at a concentration of 100 p.f.u./well were added. Following a 3-day incubation at 37° C., medium was removed, plates were blocked, rinsed, and horse radish peroxidase conjugated rabbit anti-HSV-1 antibody was added. Following removal of the antibody containing solution, plates were rinsed, and then developed by adding 150 μL per well of a solution of tetramethylbenzidine as substrate. The reaction was stopped with H2SO4 and absorbance was read at 450 and 570 nm. Drug effects were calculated as a percentage of the reduction in absorbance in the presence of each drug concentration compared to absorbance obtained with virus in the absence of drug.
as §2

[2] = Inhibition of KB cell growth (crystal violet); type: cell-based; settings: human
Experimental: as §1, §2

HCMV [3] = assay: HCMV plaque reduction assay (Towne strain) in HFF cells; type: cell-based, Human cytomegalovirus
Experimental: (§3) Stock HCMV was prepared by infecting HFF cells at a multiplicity of infection (m.o.i.) of <0.01 plaque-forming units (p.f.u.) per cell as detailed previously (see Turk, S. R.; Shipman, C., Jr.; Nassiri, M. R.; Genzingler, G.; Krawczyk, S. H.; Townsend, L. B.; Drach, J. C. Pyrrolo[2,3-d]pyrimidine Nucleosides as Inhibitors of Human Cytomegalovirus, Antimicrob. Agents Chemother. 1987, 31, 544-550). High titer HSV-1 stocks were prepared by infecting KB cells (ATCC) at an m.o.i. of <0.1 also as detailed previously (see Turk, S. R.; Shipman, C., Jr.; Nassiri, M. R.; Genzingler, G.; Krawczyk, S. H.; Townsend, L. B.; Drach, J. C. Pyrrolo[2,3-d]pyrimidine Nucleosides as Inhibitors of Human Cytomegalovirus, Antimicrob. Agents Chemother. 1987, 31, 544-550). Virus titers were determined using monolayer cultures of HFF cells for HCMV and monolayer cultures of BSC-1 cells for HSV-1 as described earlier (see Prichard, M. N.; Turk, S. R.; Coleman, L. A.; Engelhardt, S. L.; Shipman, C., Jr.; Drach, J. C. A Microtiter Virus Yield Reduction Assay for the Evaluation of Antiviral Compounds Against Human Cytomegalovirus and Herpes Simplex Virus. J. Virol. Methods 1990, 28, 101-106). Briefly, HFF or BSC-1 cells were planted as described above in 96-well cluster dishes and incubated overnight at 37° C. The next day cultures were inoculated with HCMV or HSV-1 and serially diluted 1:3 across the remaining eleven columns of the 96-well plate. After virus adsorption the inoculum was replaced with fresh medium and cultures were incubated for seven days for HCMV, two or three days for HSV-1. Plaques were enumerated under 20-fold magnification in wells having the dilution which gave 5 to 20 plaques per well. Virus titers were calculated according to the following formula: Titer (p.f.u./mL)=number of plaques×5×3^n; where n represents the nth dilution of the virus used to infect the well in which plaques were enumerated.
(§4) HFF cells in 24-well cluster dishes were infected with approximately 100 p.f.u. of HCMV per cm^2 cell sheet using the procedures detailed above. Following virus adsorption, compounds dissolved in growth medium were added to duplicate wells in four to eight selected concentrations. After incubation at 37° C. for 7 to 10 days, cell sheets were fixed, stained with crystal violet and microscopic plaques enumerated as described above.
as §2

HCMV Strain AD169 = assay: HCMV plaque reduction assay, strain AD169; type: cell-based, Human cytomegalovirus; settings: Human betaherpesvirus 5, Table 3, read-out: HCMV Strain AD169 plaque 50% Inhibitory Concentration (IC50)
Experimental: as §4, §2

HCMV [4] = assay: HCMV yield reduction assay (Towne strain) in HFF cells; type: cell-based, Human cytomegalovirus
Experimental: as §3
HFF cells were planted as described above in 96-well cluster dishes, incubated overnight, medium removed and the cultures were inoculated with HCMV at a m.o.i. of 0.5 to 1 p.f.u. per cell as reported elsewhere (see Prichard, M. N.; Turk, S. R.; Coleman, L. A.; Engelhardt, S. L.; Shipman, C., Jr.; Drach, J. C. A Microtiter Virus Yield Reduction Assay for the Evaluation of Antiviral Compounds Against Human Cytomegalovirus and Herpes Simplex Virus. J. Virol. Methods 1990, 28, 101-106). After virus adsorption, inoculum was replaced with 0.2 mL of fresh medium containing test compounds. The first row of 12 wells was left undisturbed and served as virus controls. Each well in the second row received an additional 0.1 mL of medium with test compound at three times the desired final concentration. The contents of the 12 wells were mixed by repeated pipetting and then serially diluted 1:3 along the remaining wells. In this manner, six compounds could be tested in duplicate on a single plate with concentrations from […]. Plates were incubated at 37° C. for seven days, subjected to one cycle of freezing and thawing; aliquots from each of the eight wells of a given column were transferred to the first column of a fresh 96-well monolayer culture of HFF cells. Contents were mixed and serially diluted 1:3 across the remaining eleven columns of the secondary plate. Each column of the original primary plate was diluted across a separate plate in this manner. Cultures were incubated, plaques were enumerated, and titers calculated as described above.
as §2

[5] = Human betaherpesvirus 5, HFF, Table 3, same data as Table 2, read-out: HCMV Strain Towne plaque 50% Inhibitory Concentration (IC50)
[6] = Human betaherpesvirus 5, Table 2, HFF cells, duplicate, read-out: HCMV plaque 50% Inhibitory Concentration (IC50)
[7] = Human betaherpesvirus 5, HFF, Table 3, same data as Table 2, read-out: HCMV Strain Towne yield 90% Inhibitory Concentration (IC90)
[8] = Human betaherpesvirus 5, Table 2, HFF cells, duplicate, read-out: HCMV yield 90% Inhibitory Concentration (IC90)
[9] = HFF cells, scored at time of HCMV plaque enumeration, read-out: Cytotoxicity visual (IC50)
[10] = KB cells, KB cell growth, 48 hours, quadruplicate, read-out: Cytotoxicity growth (IC50)

SMILES	IC50 [1] [µM]	IC50 (HSV-1) [µM]	IC50 at 48 h [2] [µM]	IC50 (HCMV [3]; [5]) [µM]	IC50 (HCMV [3]; [6]) [µM]	IC50 (HCMV Strain AD169) [µM]	IC90 (HCMV [4]; [7]) [µM]	IC90 (HCMV [4]; [8]) [µM]	IC50 [1, 9] [µM]	IC50 at 48 h [2, 10] [µM]	melting point
OC[C@@H]1O[C@@H](n2c(Cl)nc3cc(Cl)c(Cl)cc32)[C@H](O)[C@@H]1O [Compound 4a, 1-(α-L-Lyxofuranosyl)-2,5,6-trichlorobenzimidazole]	190	> 100	> 100	18	18	2.6	3.4	3.4	–	–	–
OC[C@H]1O[C@H](n2c(Cl)nc3cc(Cl)c(Cl)cc32)[C@@H](O)[C@H]1O [Compound 4b, 1-(α-D-Lyxofuranosyl)-2,5,6-trichlorobenzimidazole]	> 100	90	> 100	18	18	9	> 100	> 100	–	–	–
OC[C@H]1O[C@H](n2c(Br)nc3cc(Cl)c(Cl)cc32)[C@@H](O)[C@H]1O [Compound 5b, 2-Bromo-5,6-dichloro-1-(α-D-lyxofuranosyl)benzimidazole]	–	50	–	6	6	4.2	65	65	> 100	> 100	–
CNc1nc2cc(Cl)c(Cl)cc2n1[C@@H]1O[C@@H](CO)[C@@H](O)[C@H]1O [Compound 6a, 5,6-Dichloro-1-(α-L-lyxofuranosyl)-2-(methylamino)benzimidazole]	–	> 100	–	–	> 100	–	–	–	> 100	> 100	126 to 128 °C and 131 to 132 °C
CNc1nc2cc(Cl)c(Cl)cc2n1[C@H]1O[C@H](CO)[C@H](O)[C@@H]1O [Compound 6b, 5,6-Dichloro-1-(α-D-lyxofuranosyl)-2-(methylamino)benzimidazole]	–	> 100	–	–	> 100	–	–	> 100	> 100	> 100	–
CC(C)Nc1nc2cc(Cl)c(Cl)cc2n1[C@@H]1O[C@@H](CO)[C@@H](O)[C@H]1O [Compound 7a, 5,6-Dichloro-2-isopropylamino-1-(α-L-lyxofuranosyl)benzimidazole]	–	> 100	–	> 100	> 100	11	19	19	> 100	> 100	–
CC(C)Nc1nc2cc(Cl)c(Cl)cc2n1[C@H]1O[C@H](CO)[C@H](O)[C@@H]1O [Compound 7b, 5,6-Dichloro-2-isopropylamino-1-(α-D-lyxofuranosyl)benzimidazole]	–	> 100	–	60	60	32	17	17	> 100	> 100	–
OC[C@@H]1O[C@@H](n2c(NC3CC3)nc3cc(Cl)c(Cl)cc32)[C@H](O)[C@@H]1O [Compound 8a, 2-Cyclopropylamino-5,6-dichloro-1-(α-L-lyxofuranosyl)benzimidazole]	–	–	–	–	–	–	–	–	–	–	183 to 185 °C and 184 to 186 °C
OC[C@@H]1O[C@@H](n2c(=S)[nH]c3cc(Cl)c(Cl)cc32)[C@H](O)[C@@H]1O [Compound 9a, 5,6-Dichloro-1-(α-L-lyxofuranosyl)benzimidazol-2-thione]	–	> 100	–	–	> 100	–	–	> 100	> 100	> 100	234 to 236 °C
OC[C@H]1O[C@H](n2c(=S)[nH]c3cc(Cl)c(Cl)cc32)[C@@H](O)[C@H]1O [Compound 9b, 5,6-Dichloro-1-(α-D-lyxofuranosyl)benzimidazol-2-thione]	–	> 100	–	–	> 100	–	–	> 100	> 100	> 100	–
CSc1nc2cc(Cl)c(Cl)cc2n1[C@@H]1O[C@@H](CO)[C@@H](O)[C@H]1O [Compound 12a, 5,6-Dichloro-1-(α-L-lyxofuranosyl)-2-(methylthio)benzimidazole]	–	> 100	–	–	> 100	–	–	–	> 100	> 100	–
CSc1nc2cc(Cl)c(Cl)cc2n1[C@H]1O[C@H](CO)[C@H](O)[C@@H]1O [Compound 12b, 5,6-Dichloro-1(α-D-lyxofuranosyl)-2-(methylthio)benzimidazole]	–	> 100	–	–	> 100	–	–	> 100	> 100	> 100	–
O=C(O)P(=O)(O)O [foscarnet, reference compound]	–	–	–	–	39 ± 26	–	–	–	> 100	–	–
